Laboratory results as given in patent US12662491B2 (Redona Therapeutics, Inc., priority 2020, dated 2026).

Target: T1, Zcchc11 enzyme (Homo sapiens, UniProt Q5TAX3)
T1 construct: made in house; host or cells: HEK293 cells (Zcchc11); E. coli Rosetta II (LIN28A)
T1 sequence (Q5TAX3 212-1420): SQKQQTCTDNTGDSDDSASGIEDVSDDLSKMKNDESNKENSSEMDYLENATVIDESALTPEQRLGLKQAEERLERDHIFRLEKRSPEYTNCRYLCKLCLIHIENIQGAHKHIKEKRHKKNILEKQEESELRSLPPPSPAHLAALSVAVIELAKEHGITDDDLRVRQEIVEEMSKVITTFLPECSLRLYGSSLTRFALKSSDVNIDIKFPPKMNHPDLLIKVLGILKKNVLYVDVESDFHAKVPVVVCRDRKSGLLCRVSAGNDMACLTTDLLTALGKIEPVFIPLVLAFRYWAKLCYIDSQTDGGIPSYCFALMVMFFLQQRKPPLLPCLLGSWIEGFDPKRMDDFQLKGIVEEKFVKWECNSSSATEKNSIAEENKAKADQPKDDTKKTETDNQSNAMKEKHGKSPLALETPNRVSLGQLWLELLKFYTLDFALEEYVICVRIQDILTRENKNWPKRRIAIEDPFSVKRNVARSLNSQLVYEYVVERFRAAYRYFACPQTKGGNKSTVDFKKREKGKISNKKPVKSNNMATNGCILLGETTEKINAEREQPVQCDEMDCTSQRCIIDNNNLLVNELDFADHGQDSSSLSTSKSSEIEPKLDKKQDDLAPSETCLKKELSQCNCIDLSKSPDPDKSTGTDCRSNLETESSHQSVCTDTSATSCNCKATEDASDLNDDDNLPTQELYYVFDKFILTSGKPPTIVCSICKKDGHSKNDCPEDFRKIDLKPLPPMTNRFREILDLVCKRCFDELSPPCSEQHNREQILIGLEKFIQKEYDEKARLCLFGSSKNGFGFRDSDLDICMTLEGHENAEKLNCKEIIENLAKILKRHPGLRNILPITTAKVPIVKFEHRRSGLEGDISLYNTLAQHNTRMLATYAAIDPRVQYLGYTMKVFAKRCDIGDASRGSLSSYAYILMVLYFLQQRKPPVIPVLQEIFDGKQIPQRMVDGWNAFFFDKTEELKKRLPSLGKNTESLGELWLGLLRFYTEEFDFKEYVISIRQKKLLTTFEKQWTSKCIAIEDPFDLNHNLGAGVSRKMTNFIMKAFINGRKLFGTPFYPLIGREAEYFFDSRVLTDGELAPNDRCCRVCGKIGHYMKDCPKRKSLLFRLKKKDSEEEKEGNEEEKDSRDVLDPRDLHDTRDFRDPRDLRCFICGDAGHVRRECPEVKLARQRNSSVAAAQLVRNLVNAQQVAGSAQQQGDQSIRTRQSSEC
Assay: TUTase assay (Zcchc11 assay, Lin28a-dependent polyuridylation of pre-let-7)
Type: biochemical
Conditions: Lin28a-dependent Zcchc11 (Z11) TUTase assay; read-out: Potency Lin28a-dep Z11 IC50
How it was run: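 Readout: time-dependent quench of 5′-fluorescein pre-let-7 (2 nM) as 3′-rhodamine A20 probe anneals to poly(U) tails. Enzyme 0.2 nM Zcchc11 (res. 212-1420), LIN28A 10 nM, UTP 5 uM; pH 7.3 HEPES, 150 mM KCl, 5 mM MgCl2, RT. 4-parameter IC50; 100% = DMSO, 0% = no UTP.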

Compared with O=C(O)c1cn(-c2ccc(O)cc2C(F)(F)F)c2cc(N3CCC[C@@H]3COc3ccccn3)c(F)cc2c1=O [Example 383, (R)-6-fluoro-1-(4-hydroxy-2-(trifluoromethyl)phenyl)-4-oxo-7-(2-((pyridin-2-yloxy)methyl)pyrrolidin-1-yl)-1,4-dihydroquinoline-3-carboxylic acid], O=C(O)c1cn(-c2ccc(O)cc2Cl)c2cc(N3CCC[C@@H]3COc3ccccn3)c(F)cc2c1=O [Example 384, (R)-1-(2-chloro-4-hydroxyphenyl)-6-fluoro-4-oxo-7-(2-((pyridin-2-yloxy)methyl)pyrrolidin-1-yl)-1,4-dihydroquinoline-3-carboxylic acid] is lower in IC50: 10000 to 50000 nM for the first, 1000 to 10000 nM for the second.

O=C(O)c1cn(-c2ccc(O)c(F)c2)c2cc(N3CCC[C@@H]3COc3ccccn3)c(F)cc2c1=O [Example 385, (R)-6-fluoro-1-(3-fluoro-4-hydroxyphenyl)-4-oxo-7-(2-((pyridin-2-yloxy)methyl)pyrrolidin-1-yl)-1,4-dihydroquinoline-3-carboxylic acid] and Cc1cc(-n2cc(C(=O)O)c(=O)c3cc(F)c(N4CCC[C@@H]4COc4ccccn4)cc32)ccc1O [Example 395, (R)-6-fluoro-1-(4-hydroxy-3-methylphenyl)-4-oxo-7-(2-((pyridin-2-yloxy)methyl)pyrrolidin-1-yl)-1,4-dihydroquinoline-3-carboxylic acid] cannot be ordered by IC50: at most 1000 nM for the first, 1000 to 10000 nM for the second.

O=C(O)c1cn(-c2cc(F)ccc2Cl)c2cc(N3CCC[C@@H]3COc3ccccn3)c(F)cc2c1=O [Example 386, (R)-1-(2-chloro-5-fluorophenyl)-6-fluoro-4-oxo-7-(2-((pyridin-2-yloxy)methyl)pyrrolidin-1-yl)-1,4-dihydroquinoline-3-carboxylic acid] and O=C(O)c1cn(-c2cc(F)ccc2F)c2cc(N3CCC[C@@H]3COc3ccccn3)c(F)cc2c1=O [Example 387, (R)-1-(2,5-difluorophenyl)-6-fluoro-4-oxo-7-(2-((pyridin-2-yloxy)methyl)pyrrolidin-1-yl)-1,4-dihydroquinoline-3-carboxylic acid] fall in the same range of IC50: 1000 to 10000 nM for the first, 1000 to 10000 nM for the second.

O=C(O)c1cn(-c2cc(F)cc(F)c2)c2cc(N3CCC[C@@H]3COc3ccccn3)c(F)cc2c1=O [Example 388, (R)-1-(3,5-difluorophenyl)-6-fluoro-4-oxo-7-(2-((pyridin-2-yloxy)methyl)pyrrolidin-1-yl)-1,4-dihydroquinoline-3-carboxylic acid] and Cc1cc(C)cc(-n2cc(C(=O)O)c(=O)c3cc(F)c(N4CCC[C@@H]4COc4ccccn4)cc32)c1 [Example 389, (R)-1-(3,5-dimethylphenyl)-6-fluoro-4-oxo-7-(2-((pyridin-2-yloxy)methyl)pyrrolidin-1-yl)-1,4-dihydroquinoline-3-carboxylic acid] fall in the same range of IC50: 1000 to 10000 nM for the first, 1000 to 10000 nM for the second.

Cc1cccc(F)c1-n1cc(C(=O)O)c(=O)c2cc(F)c(N3CCC[C@@H]3COc3ccccn3)cc21 [Example 390, (R)-6-fluoro-1-(2-fluoro-6-methylphenyl)-4-oxo-7-(2-((pyridin-2-yloxy)methyl)pyrrolidin-1-yl)-1,4-dihydroquinoline-3-carboxylic acid] and Cc1c(F)cccc1-n1cc(C(=O)O)c(=O)c2cc(F)c(N3CCC[C@@H]3COc3ccccn3)cc21 [Example 397, (R)-6-fluoro-1-(3-fluoro-2-methylphenyl)-4-oxo-7-(2-((pyridin-2-yloxy)methyl)pyrrolidin-1-yl)-1,4-dihydroquinoline-3-carboxylic acid] fall in the same range of IC50: 1000 to 10000 nM for the first, 1000 to 10000 nM for the second.

Cc1cccc(-n2cc(C(=O)O)c(=O)c3cc(F)c(N4CCC[C@@H]4COc4ccccn4)cc32)c1 [Example 391, (R)-6-fluoro-4-oxo-7-(2-((pyridin-2-yloxy)methyl)pyrrolidin-1-yl)-1-(m-tolyl)-1,4-dihydroquinoline-3-carboxylic acid] and COc1cccc(-n2cc(C(=O)O)c(=O)c3cc(F)c(N4CCC[C@@H]4COc4ccccn4)cc32)c1 [Example 399, (R)-6-fluoro-1-(3-methoxyphenyl)-4-oxo-7-(2-((pyridin-2-yloxy)methyl)pyrrolidin-1-yl)-1,4-dihydroquinoline-3-carboxylic acid] cannot be ordered by IC50: at most 1000 nM for the first, at most 1000 nM for the second.

Cc1cccc(-n2cc(C(=O)O)c(=O)c3cc(F)c(N4CCC[C@@H]4COc4ccccn4)cc32)c1C [Example 392, (R)-1-(2,3-dimethylphenyl)-6-fluoro-4-oxo-7-(2-((pyridin-2-yloxy)methyl)pyrrolidin-1-yl)-1,4-dihydroquinoline-3-carboxylic acid] and Cc1ccc(-n2cc(C(=O)O)c(=O)c3cc(F)c(N4CCC[C@@H]4COc4ccccn4)cc32)c(C)c1 [Example 394, (R)-1-(2,4-dimethylphenyl)-6-fluoro-4-oxo-7-(2-((pyridin-2-yloxy)methyl)pyrrolidin-1-yl)-1,4-dihydroquinoline-3-carboxylic acid] cannot be ordered by IC50: at most 1000 nM for the first, 1000 to 10000 nM for the second.

Cc1ccc(F)cc1-n1cc(C(=O)O)c(=O)c2cc(F)c(N3CCC[C@@H]3COc3ccccn3)cc21 [Example 393, (R)-6-fluoro-1-(5-fluoro-2-methylphenyl)-4-oxo-7-(2-((pyridin-2-yloxy)methyl)pyrrolidin-1-yl)-1,4-dihydroquinoline-3-carboxylic acid] and Cc1cc(O)ccc1-n1cc(C(=O)O)c(=O)c2cc(F)c(N3CCC[C@@H]3COc3ccccn3)cc21 [Example 396, (R)-6-fluoro-1-(4-hydroxy-2-methylphenyl)-4-oxo-7-(2-((pyridin-2-yloxy)methyl)pyrrolidin-1-yl)-1,4-dihydroquinoline-3-carboxylic acid] fall in the same range of IC50: 1000 to 10000 nM for the first, 1000 to 10000 nM for the second.

COc1ccc(Cl)c(-n2cc(C(=O)O)c(=O)c3cc(F)c(N4CCC[C@@H]4COc4ccccn4)cc32)c1 [Example 398, (R)-1-(2-chloro-5-methoxyphenyl)-6-fluoro-4-oxo-7-(2-((pyridin-2-yloxy)methyl)pyrrolidin-1-yl)-1,4-dihydroquinoline-3-carboxylic acid] and COc1ccc(F)c(-n2cc(C(=O)O)c(=O)c3cc(F)c(N4CCC[C@@H]4COc4ccccn4)cc32)c1 [Example 400, (R)-6-fluoro-1-(2-fluoro-5-methoxyphenyl)-4-oxo-7-(2-((pyridin-2-yloxy)methyl)pyrrolidin-1-yl)-1,4-dihydroquinoline-3-carboxylic acid] fall in the same range of IC50: 1000 to 10000 nM for the first, 1000 to 10000 nM for the second.

COc1ccc(-n2cc(C(=O)O)c(=O)c3cc(F)c(N4CCC[C@@H]4COc4ccccn4)cc32)cc1 [Example 401, (R)-6-fluoro-1-(4-methoxyphenyl)-4-oxo-7-(2-((pyridin-2-yloxy)methyl)pyrrolidin-1-yl)-1,4-dihydroquinoline-3-carboxylic acid] and O=C(O)c1cn(-c2ccccc2CO)c2cc(N3CCC[C@@H]3COc3ccccn3)c(F)cc2c1=O [Example 403, (R)-6-fluoro-1-(2-(hydroxymethyl)phenyl)-4-oxo-7-(2-((pyridin-2-yloxy)methyl)pyrrolidin-1-yl)-1,4-dihydroquinoline-3-carboxylic acid] cannot be ordered by IC50: at most 1000 nM for the first, 1000 to 10000 nM for the second.

O=C(O)c1cn(-c2cnccn2)c2cc(N3CCC[C@@H]3COc3ccccn3)c(F)cc2c1=O [Example 402, (R)-6-fluoro-4-oxo-1-(pyrazin-2-yl)-7-(2-((pyridin-2-yloxy)methyl)pyrrolidin-1-yl)-1,4-dihydroquinoline-3-carboxylic acid] showed an IC50 of 1000 to 10000 nM.
